Measurements reported in ChEMBL document CHEMBL1641575, “Conventional and microwave assisted synthesis of 2-oxo-4-substituted aryl-azetidine derivatives of benzotriazole: a new class of biological compounds” (Bioorg Med Chem Lett, 2011).
In brackets after ≈: the same amount, converted by molar mass.

Tests used:
Candida albicans = assay: Antifungal activity against Candida albicans assessed as inhibition of visible growth after 48 hrs by agar dilution method; type: functional
Staphylococcus aureus = assay: Antibacterial activity against Staphylococcus aureus assessed as inhibition of visible growth after 48 hrs by agar dilution method; type: functional
Escherichia coli = assay: Antibacterial activity against Escherichia coli assessed as inhibition of visible growth after 48 hrs by agar dilution method; type: functional
Aspergillus niger = assay: Antifungal activity against Aspergillus niger assessed as inhibition of visible growth after 48 hrs by agar dilution method; type: functional
Streptococcus pneumoniae = assay: Antibacterial activity against Streptococcus pneumoniae assessed as inhibition of visible growth after 48 hrs by agar dilution method; type: functional
Aspergillus fumigatus = assay: Antifungal activity against Aspergillus fumigatus assessed as inhibition of visible growth after 48 hrs by agar dilution method; type: functional
[1] = tested on: Mycobacterium tuberculosis; assay: Antitubercular activity against Mycobacterium tuberculosis H37Rv assessed as inhibition of colonies after 30 days by agar microdilution method; type: functional
[2] = Cytotoxicity against african green monkey Vero C1008 cells at 0.01 to 0.1 ug/ml by neutral red uptake assay; type: cell-based; conditions: chlorocebus sabaeus

In the case of `O=C1C(Cl)C(c2ccccc2)N1/N=C/CCn1nnc2ccccc21` (configuration not stated), the MIC (Candida albicans) is reported as 1 µg/mL (≈ 2.83 µM), the MIC (Staphylococcus aureus) is reported as 1 µg/mL (≈ 2.83 µM) and the MIC (Escherichia coli) is reported as 1 µg/mL (≈ 2.83 µM). The MIC (Aspergillus niger) was 1 µg/mL (≈ 2.83 µM), the MIC (Streptococcus pneumoniae) was 0.5 µg/mL (≈ 1.41 µM) and the MIC (Aspergillus fumigatus) was 1 µg/mL (≈ 2.83 µM). For the same molecule, the MIC [1] was > 12.5 µg/mL and the Activity [2] was “Non-toxic”.

For `O=C1C(Cl)C(c2ccccc2Cl)N1/N=C/CCn1nnc2ccccc21` (configuration not stated), the MIC (Candida albicans) was 1 µg/mL (≈ 2.58 µM), the MIC (Staphylococcus aureus) was 0.5 µg/mL (≈ 1.29 µM) and the MIC (Escherichia coli) was 0.1 µg/mL (≈ 0.258 µM). The MIC (Aspergillus niger) was 0.5 µg/mL (≈ 1.29 µM), the MIC (Streptococcus pneumoniae) was 0.1 µg/mL (≈ 0.258 µM) and the MIC (Aspergillus fumigatus) was 0.5 µg/mL (≈ 1.29 µM). It also gave an MIC [1] of 3.12 µg/mL (≈ 8.05 µM).

Molecule `O=C1C(Cl)C(c2ccc(Cl)cc2)N1/N=C/CCn1nnc2ccccc21` (configuration not stated) has an MIC (Candida albicans) of 0.5 µg/mL (≈ 1.29 µM), an MIC (Staphylococcus aureus) of 0.1 µg/mL (≈ 0.258 µM) and an MIC (Escherichia coli) of 0.1 µg/mL (≈ 0.258 µM). For the same molecule, the MIC (Aspergillus niger) was 1 µg/mL (≈ 2.58 µM), the MIC (Streptococcus pneumoniae) was 0.5 µg/mL (≈ 1.29 µM) and the MIC (Aspergillus fumigatus) was 0.5 µg/mL (≈ 1.29 µM). For the same molecule, the MIC [1] was > 3.12 µg/mL.

With `O=C1C(Cl)C(c2ccccc2Br)N1/N=C/CCn1nnc2ccccc21` (configuration not stated) the MIC (Candida albicans) was 1 µg/mL (≈ 2.31 µM), the MIC (Staphylococcus aureus) was 0.1 µg/mL (≈ 0.231 µM) and the MIC (Escherichia coli) was 0.1 µg/mL (≈ 0.231 µM). The MIC (Aspergillus niger) was 0.5 µg/mL (≈ 1.16 µM), the MIC (Streptococcus pneumoniae) was 0.5 µg/mL (≈ 1.16 µM) and the MIC (Aspergillus fumigatus) was 0.5 µg/mL (≈ 1.16 µM). For the same molecule, the MIC [1] was > 3.12 µg/mL.

Molecule `O=C1C(Cl)C(c2cccc(Br)c2)N1/N=C/CCn1nnc2ccccc21` (configuration not stated) has an MIC (Candida albicans) of 0.5 µg/mL (≈ 1.16 µM), an MIC (Staphylococcus aureus) of 0.1 µg/mL (≈ 0.231 µM) and an MIC (Escherichia coli) of 0.1 µg/mL (≈ 0.231 µM). For the same molecule, the MIC (Aspergillus niger) was 0.1 µg/mL (≈ 0.231 µM), the MIC (Streptococcus pneumoniae) was 0.1 µg/mL (≈ 0.231 µM) and the MIC (Aspergillus fumigatus) was 0.1 µg/mL (≈ 0.231 µM). For the same molecule, the MIC [1] was 6.25 µg/mL (≈ 14.4 µM).

For `O=C1C(Cl)C(c2ccccc2[N+](=O)[O-])N1/N=C/CCn1nnc2ccccc21` (configuration not stated), the MIC (Candida albicans) was 0.1 µg/mL (≈ 0.251 µM), the MIC (Staphylococcus aureus) was 0.5 µg/mL (≈ 1.25 µM) and the MIC (Escherichia coli) was 0.5 µg/mL (≈ 1.25 µM). The MIC (Aspergillus niger) was 0.1 µg/mL (≈ 0.251 µM), the MIC (Streptococcus pneumoniae) was 0.1 µg/mL (≈ 0.251 µM) and the MIC (Aspergillus fumigatus) was 0.1 µg/mL (≈ 0.251 µM). The MIC [1] was > 3.12 µg/mL.

Work on `O=C1C(Cl)C(c2ccc([N+](=O)[O-])cc2)N1/N=C/CCn1nnc2ccccc21` (configuration not stated) yielded an MIC (Candida albicans) of 0.1 µg/mL (≈ 0.251 µM), an MIC (Staphylococcus aureus) of 0.1 µg/mL (≈ 0.251 µM) and an MIC (Escherichia coli) of 0.5 µg/mL (≈ 1.25 µM). The MIC (Aspergillus niger) was 0.5 µg/mL (≈ 1.25 µM), the MIC (Streptococcus pneumoniae) was 0.5 µg/mL (≈ 1.25 µM) and the MIC (Aspergillus fumigatus) was 0.5 µg/mL (≈ 1.25 µM). For the same molecule, the MIC [1] was > 1.56 µg/mL.

With `COc1ccccc1C1C(Cl)C(=O)N1/N=C/CCn1nnc2ccccc21` (configuration not stated) the MIC (Candida albicans) was 0.1 µg/mL (≈ 0.261 µM), the MIC (Staphylococcus aureus) was 1 µg/mL (≈ 2.61 µM) and the MIC (Escherichia coli) was 2 µg/mL (≈ 5.21 µM). It also gave an MIC (Aspergillus niger) of 0.1 µg/mL (≈ 0.261 µM), an MIC (Streptococcus pneumoniae) of 0.5 µg/mL (≈ 1.3 µM) and an MIC (Aspergillus fumigatus) of 0.1 µg/mL (≈ 0.261 µM). For the same molecule, the MIC [1] was > 6.25 µg/mL.

Molecule `COc1ccc(C2C(Cl)C(=O)N2/N=C/CCn2nnc3ccccc32)cc1` (configuration not stated) has an MIC (Candida albicans) of 0.1 µg/mL (≈ 0.261 µM), an MIC (Staphylococcus aureus) of 1 µg/mL (≈ 2.61 µM) and an MIC (Escherichia coli) of 1 µg/mL (≈ 2.61 µM). For the same molecule, the MIC (Aspergillus niger) was 0.1 µg/mL (≈ 0.261 µM), the MIC (Streptococcus pneumoniae) was 0.5 µg/mL (≈ 1.3 µM) and the MIC (Aspergillus fumigatus) was 0.1 µg/mL (≈ 0.261 µM). For the same molecule, the MIC [1] was > 12.5 µg/mL.

With `CC[C@@H](CO)NCCN[C@@H](CC)CO` [ETHAMBUTOL] the MIC [1] was 1 µg/mL (≈ 4.89 µM).

`Clc1ccc(COC(Cn2ccnc2)c2ccc(Cl)cc2Cl)c(Cl)c1` (configuration not stated) [MICONAZOLE] gave an MIC (Candida albicans) of 0.1 µg/mL (≈ 0.24 µM), an MIC (Aspergillus niger) of 0.1 µg/mL (≈ 0.24 µM) and an MIC (Aspergillus fumigatus) of 0.1 µg/mL (≈ 0.24 µM).

`CC1COc2c(N3CCN(C)CC3)c(F)cc3c(=O)c(C(=O)O)cn1c23` (configuration not stated) [OFLOXACIN] showed an MIC (Staphylococcus aureus) of 0.1 µg/mL (≈ 0.277 µM), an MIC (Escherichia coli) of 0.1 µg/mL (≈ 0.277 µM) and an MIC (Streptococcus pneumoniae) of 0.1 µg/mL (≈ 0.277 µM).

Work on `CN[C@@H]1[C@H](O[C@H]2[C@H](O[C@H]3[C@H](O)[C@@H](O)[C@H](N=C(N)N)[C@@H](O)[C@@H]3N=C(N)N)O[C@@H](C)[C@]2(O)C=O)O[C@@H](CO)[C@H](O)[C@H]1O` [STREPTOMYCIN] yielded an MIC [1] of 4 µg/mL (≈ 6.88 µM).
